Entries after “also recorded” stand apart in the source; their conditions may differ.
B1: vitronectin (protein, UniProt P04004 20-478, looked up)
Vitronectin: DQESCKGRCTEGFNVDKKCQCDELCSYYQSCCTDYTAECKPQVTRGDVFTMPEDEYTVYDDGEEKNNATVHEQVGGPSLTSDLQAQSKGNPEQTPVLKPEEEAPAPEVGASKPEGIDSRPETLHPGRPQPPAEEELCSGKPFDAFTDLKNGSLFAFRGQYCYELDEKAVRPGYPKLIRDVWGIEGPIDAAFTRINCQGKTYLFKGSQYWRFEDGVLDPDYPRNISDGFDGIPDNVDAALALPAHSYSGRERVYFFKGKQYWEYQFQHQPSQEECEGSSLSAVFEHFAMMQRDSWEDIFELLFWGRTSAGTRQPQFISRDWHGVPGQVDAAMAGRIYISGMAPRPSLAKKQRFRHRNRKGYRSQRGHSRGRNQNSRRPSRATWLSLFSSEESNLGANNYDDYRMDWLVPATCEPIQSVFFFSGDKYYRVNLRTRRVDTVDPPYPRSIAQYWLGCPAPGHL
notes: extracellular matrix protein, RGD-containing αv ligand

Tests used:
SMS-SB cells [1] = assay: Flow cytometry binding of biotinylated peptides to SMS-SB cells; format: cell-based, human
From the text: FIG. 3C:—Binding of biotinylated peptides to pre-B cell lines was detected by addition of PE-streptavidin and flow cytometry; mean fluorescence index (MFI) data were derived using CellQuest software. The flow cytometric plots for binding of peptides #9 (black line), #11 (grey line) and #57 (shaded area) are illustrated (Panel i), and MFI data for binding of the noted peptides to SMS-SB (Panel ii), Blin-1 (Panel iii) and Nalm-6 (Panel iv) are shown. The unique nine amino acid sequence of each biotinylated tridecapeptide is shown with the RKC motif shared by αvβ5 binding peptides shown in bold (Panel ii).
Binding of peptides to cells was visualised by treating cells exposed to biotinylated peptides with fluorochrome-conjugated streptavidin and scoring binding by flow cytometry; mean fluorescence intensity data were obtained using the CellQuest programme. In culture experiments, peptides were used in the 10 nM to […] concentration range and appropriate solvent vehicle controls (e.g., acetonitrile, DMSO) were always performed.

SMS-SB cells [2] = assay: Proliferation ([3H]-thymidine incorporation) of low cell density SMS-SB cultures; format: cell-based, human; details: 72 hr; for growth / thymidine incorporation of SMS-SB cells: LCD cultures, 2500 cells/well
Experimental: For stimulation experiments, SMS-SB cells were cultured at 2500 cells/100 μl culture (low cell density, LCD) a seeding density at which the cells are prone to apoptose^15. NALM-6 cells were washed extensively in PFHM prior to culture at 2, 500 cells/100 μl culture. Cultures were propagated, in the presence or absence of cytokines, MAbs or peptides, at 37° C. for 72 hours followed by addition of 0.3 μCi/well tritiated thymidine ([^3H]-TdR) for 18 hours prior to harvest; incorporation was determined by liquid scintillation spectrometry. Apoptosis was determined by staining harvested cells with propidium iodide (PI) and Hoechst 33342 for 1 minute prior to analysis on a Coulter Elite flow cytometer as previously described^15. For stromal cell/SMS-SB co-cultures, 6000 stromal cells were seeded into individual wells of a 96-well tray and allowed to adhere for 24 hr; anti-CD23 MAb or isotype matched control and SMS-SB cells were added to the wells to give a total culture volume of 100 μl. SMS-SB cells were added at 5, 25 or 50 cells per well and cultures were allowed to expand over a 2-4 week period.

Row | Molecule | binding of biotinylated peptide to SMS-SB cells (SMS-SB cells [1]; flow cytometry, MFI) | growth / thymidine incorporation of SMS-SB cells (SMS-SB cells [2]) | effect of excess RGDS on peptide binding to SMS-SB cells (SMS-SB cells [1]; ten-fold excess / 10 μg/ml RGDS) | effect of RGDS on SMS-SB growth / thymidine incorporation induced by peptides #9 and #12 (SMS-SB cells [2]; 10 μg/ml RGDS)
1 | CKRQFNIWK [9-INV] | does not reduce greatly binding | reduces substantially, but does not ablate, its ability to elevate thymidine incorporation | – | –
2 | RGDS | – | – | neither impedes peptide binding to SMS-SB cells; also recorded: fails to block binding of peptide #9 to SMS-SB cells | nor inhibits thymidine incorporation induced by peptides #9 and #12; also recorded: fails to block
3 | fibronectin [Fn] | – | neither Vn nor Fn sustain the growth of SMS-SB cells | – | –
4 | B1 | – | neither Vn nor Fn sustain the growth of SMS-SB cells | – | –
